The numbers were not newly measured in patent US20230059869A1, “ORAL PHARMACEUTICAL SOLUTION OF CLOPIDOGREL” (LIQMEDS WORLDWIDE LIMITED, priority 2021, published 2023), which cites them from elsewhere.

For data set [1] the following is noted: at high doses; see Reist; Badorc.
For data set [2] the following is noted: see Reist; Badorc.

The structures appear in SMILES notation.

In the case of `COC(=O)[C@@H](c1ccccc1Cl)N1CCc2sccc2C1` [Impurity C, (R)-Methyl (2-chlorophenyl)(6,7-dihydro-4H-thieno[3,2-c]pyridin-5-yl)acetate], in data set [1], the convulsions result is on record as “can evoke convulsions at high doses”. Also, the antithrombotic activity entry in data set [2] is reported as “devoid of antithrombotic activity”.
